From patent US20180311238A1, “Selective Agonist Of a6 Containing nAChRs” (Saniona A/S, priority 2017, published 2018)

Legend:
α7 = α7 (Rattus norvegicus, UniProt Q05941); assay: biochemical; format: binding
[1] = target: T1, human α4β2 nicotinic receptors (Homo sapiens, UniProt P17787+P43681); assay: FLIPR fluorescence-based calcium assay, α4β2; format: cell-based; conditions: FLIPR calcium response relative to nicotine
T1 construct: expressed in transfected cells
Description: The level of agonist activity of 9-methyl-3-pyridin-3-yl-3,9-diaza-bicyclo[3.3.1]nonane was tested in functional fluorescence-based calcium assays using TE671 cells and HEK293 cells stably expressing human α6/α3β2β3^V273S, α3β4 and α4β2 nicotinic receptors.
Cells were plated on poly-D-lysine coated 384-well microtiter plates and were allowed to proliferate for 24 h. Dye loading was performed by incubating cells with 2 μM fluo-4/AM for 1.5 h at room temperature. Dye not taken up by cells was removed by aspiration followed by three washing cycles with 25 μl of NMDG Ringer buffer (in mM: 140 NMDG, 5 KCl, 1 MgCl2, 10 CaCl2, 10 HEPES, pH 7.4) after which the cells were kept in 25 μl of the same buffer. The microtiter plates were placed in a Fluoremetric Imaging Plate Reader (FLIPR) and subjected to test compound at various concentrations. Background subtracted compound-mediated calcium responses were normalized to 100 μM nicotine control responses and pEC50 as well as relative maximal efficacy values were determined.

[2] = system: L-dopa-induced dyskinesia; assay: L-dopa-induced dyskinesia (AIMs) in 6-OHDA lesioned rats; format: in vivo, rat
Description: Adult male Sprague-Dawley rats (Harlan labs), ˜3 months old and weighing 250-275 grams, were housed in groups of 2 in a temperature- and humidity-controlled colony room that was maintained on a 12 hour light/dark cycle. Food and water were available ad libitum throughout the experiment with the exception that animals were food fasted for 12 hours prior to the surgical (6-OHDA lesion) procedure.
Prior to surgery, all animals were anesthetized and placed in the prone position. The hair was clipped from the head and the surgical site aseptically washed with betadine and alcohol. The animals head was fixed during surgery by a stereotaxic device and continuously anesthetized using isoflurane (1.5-2.0%) via a nosecone attached to the stereotaxic frame. […] The animals were monitored by the surgeon for suitable hemostasis and respiration. […]
For quantification of L-DOPA-induced AIMs, rats were placed in transparent plastic cages and observed during the first minute of every 30-minute period in the 2 hours following the injection of L-DOPA. […]
Each of the four subtypes was scored on a severity scale from 0 to 4. • 0=absent • 1=present during less than half of the observation time • 2=present for more than half of the observation time • 3=present all the time but suppressible by external stimuli • 4=present all the time and not suppressible by external stimuli. […]

[3] = target: T2, (Homo sapiens, UniProt P30926+P32297); assay: Oocyte two-electrode voltage-clamp electrophysiology, α3β4; format: cell-based; conditions: Xenopus laevis oocytes
T2 construct: expressed in transfected cells; host or cells: Xenopus laevis oocytes injected with cRNA
Description: Two-electrode voltage-clamp electrophysiology recordings were done in Xenopus laevis oocytes injected with approximately 25 ng cRNA. After injection, oocytes were incubated at 17° C. for 2-3 days. During measurements, an oocyte was placed in a custom designed recording chamber where compound solutions are added directly to the oocyte via a glass capillary. Compound solutions were prepared on the day of measurement and applied to oocytes with a flowrate of 2.0 ml/min. All datasets were baseline subtracted and responses to individual applications were read as peak current amplitudes. Concentration response relationships describing compound effect at a fixed acetylcholine concentration were fitted to a monophasic Hill-equation. Potency (EC50) and efficacy values (fitted maximal current relative to maximal current of acetylcholine).

T2 sequence (P32297 32-505): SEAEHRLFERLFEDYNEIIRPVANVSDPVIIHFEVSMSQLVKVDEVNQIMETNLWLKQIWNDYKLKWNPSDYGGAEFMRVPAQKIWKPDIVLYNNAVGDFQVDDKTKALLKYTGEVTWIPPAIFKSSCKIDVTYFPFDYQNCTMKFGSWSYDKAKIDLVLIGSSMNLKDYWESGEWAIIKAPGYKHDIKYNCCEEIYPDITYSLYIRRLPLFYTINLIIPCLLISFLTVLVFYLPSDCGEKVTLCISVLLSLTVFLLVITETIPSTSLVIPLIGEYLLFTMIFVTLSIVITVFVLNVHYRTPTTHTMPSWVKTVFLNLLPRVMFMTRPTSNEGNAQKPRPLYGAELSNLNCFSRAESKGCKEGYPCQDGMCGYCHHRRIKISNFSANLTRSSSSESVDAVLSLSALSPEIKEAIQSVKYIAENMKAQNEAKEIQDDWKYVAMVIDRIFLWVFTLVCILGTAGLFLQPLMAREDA
T2 sequence (P30926 22-498): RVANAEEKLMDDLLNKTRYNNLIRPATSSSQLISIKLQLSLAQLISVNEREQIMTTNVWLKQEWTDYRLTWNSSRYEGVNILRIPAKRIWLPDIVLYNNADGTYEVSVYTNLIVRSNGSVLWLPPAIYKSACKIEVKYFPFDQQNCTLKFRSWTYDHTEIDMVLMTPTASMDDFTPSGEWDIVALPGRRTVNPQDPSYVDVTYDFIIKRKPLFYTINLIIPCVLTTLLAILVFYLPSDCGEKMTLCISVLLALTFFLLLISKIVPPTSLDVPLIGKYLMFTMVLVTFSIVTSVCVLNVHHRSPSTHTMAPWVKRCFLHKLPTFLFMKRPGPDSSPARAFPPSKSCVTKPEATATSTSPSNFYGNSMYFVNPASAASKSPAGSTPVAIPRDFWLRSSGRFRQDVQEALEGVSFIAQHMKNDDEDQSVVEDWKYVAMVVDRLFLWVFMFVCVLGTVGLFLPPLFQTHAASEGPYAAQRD
T1 sequence (P43681 29-627 limits assumed): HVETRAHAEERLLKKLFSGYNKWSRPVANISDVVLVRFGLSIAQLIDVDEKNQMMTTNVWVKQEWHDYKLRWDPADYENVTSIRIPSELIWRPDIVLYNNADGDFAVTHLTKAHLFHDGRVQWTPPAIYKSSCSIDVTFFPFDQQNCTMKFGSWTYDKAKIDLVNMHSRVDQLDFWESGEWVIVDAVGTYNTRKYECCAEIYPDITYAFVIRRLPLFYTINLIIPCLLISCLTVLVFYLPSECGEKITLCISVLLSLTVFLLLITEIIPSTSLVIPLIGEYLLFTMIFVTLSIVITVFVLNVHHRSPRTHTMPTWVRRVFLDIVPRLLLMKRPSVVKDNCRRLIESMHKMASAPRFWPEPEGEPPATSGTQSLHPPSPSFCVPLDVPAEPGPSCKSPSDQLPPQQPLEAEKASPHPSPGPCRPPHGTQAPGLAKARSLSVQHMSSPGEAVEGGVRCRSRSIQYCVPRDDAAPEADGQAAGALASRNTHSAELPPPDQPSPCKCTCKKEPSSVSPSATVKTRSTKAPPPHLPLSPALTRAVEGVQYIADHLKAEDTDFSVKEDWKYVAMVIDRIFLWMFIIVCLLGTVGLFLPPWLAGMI
T1 sequence (P17787 26-502): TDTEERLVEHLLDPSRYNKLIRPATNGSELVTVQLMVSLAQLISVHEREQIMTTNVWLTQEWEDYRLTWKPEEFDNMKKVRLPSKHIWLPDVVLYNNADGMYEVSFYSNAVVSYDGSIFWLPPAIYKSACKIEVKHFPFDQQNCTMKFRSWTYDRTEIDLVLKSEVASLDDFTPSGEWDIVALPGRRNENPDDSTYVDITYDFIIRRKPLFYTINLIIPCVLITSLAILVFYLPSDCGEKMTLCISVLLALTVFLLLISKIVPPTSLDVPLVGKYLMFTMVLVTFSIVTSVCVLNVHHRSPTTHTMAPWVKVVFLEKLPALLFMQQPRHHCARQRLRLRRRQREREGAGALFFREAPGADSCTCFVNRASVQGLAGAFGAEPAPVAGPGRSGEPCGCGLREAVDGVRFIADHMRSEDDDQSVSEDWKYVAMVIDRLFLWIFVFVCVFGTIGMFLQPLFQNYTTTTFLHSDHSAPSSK
Chain of α7 (Q05941 23-502): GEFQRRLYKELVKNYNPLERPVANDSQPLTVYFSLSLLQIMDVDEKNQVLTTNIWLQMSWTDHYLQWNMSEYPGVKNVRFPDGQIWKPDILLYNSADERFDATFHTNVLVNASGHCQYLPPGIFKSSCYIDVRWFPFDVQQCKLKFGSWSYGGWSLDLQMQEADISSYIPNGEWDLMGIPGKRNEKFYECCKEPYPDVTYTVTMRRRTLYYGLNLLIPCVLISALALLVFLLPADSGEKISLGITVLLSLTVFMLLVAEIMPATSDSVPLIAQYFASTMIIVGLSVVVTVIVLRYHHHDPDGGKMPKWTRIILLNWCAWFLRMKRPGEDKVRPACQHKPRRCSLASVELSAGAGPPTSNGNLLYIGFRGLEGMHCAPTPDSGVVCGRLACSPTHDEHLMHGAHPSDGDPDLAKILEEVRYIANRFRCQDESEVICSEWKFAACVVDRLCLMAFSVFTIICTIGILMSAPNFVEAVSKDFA

CN1C2CCCC1CN(c1cccnc1)C2 [9-methyl-3-pyridin-3-yl-3,9-diaza-bicyclo[3.3.1]nonane]
Ki (α7): 290 nM | efficacy [1]: practically no efficacy | L-dopa-induced AIMs, follow-up dose ([2]; 3.0 mg/kg): did not further decrease L-dopa-induced AIMs | L-dopa-induced AIMs ([2]; 0.1, 0.3, 1.0 mg/kg sc 30 minutes prior to L-dopa (8 mg/kg)): significant, dose-related decrease in AIMs with the 0.3 and 1.0 mg/kg doses reaching statistical significance relative to saline controls | efficacy [3]: practically no efficacy
